Results: patent US7514419B2, “Phosphorus-containing thyromimetics” (Metabasis Therapeutics, Inc., priority 2003, dated 2009)

Legend:
[1] = tested on: Hypercholesterolemic rats; assay: Cholesterol lowering in hypercholesterolemic rats; format: in vivo, rat; conditions: for change in vivo at 0.2 mg/kg/day / change in vivo at 0.5 mg/kg/day: Rattus norvegicus, percentage change from pre-dose cholesterol; for cholesterol lowering: 0.5 mg/kg/d orally; for change in vivo at 0.5 mg/kg/day: delivered p.o. (0.5 mg/kg/d)
[2] = tested on: normal rats maintained on a cholesterol-containing diet; assay: Continuous infusion study in rats on a cholesterol-containing diet; conditions: continuous infusion 1 mg/kg/day; for cardiovascular parameters (heart rate, LV dP/dt, blood pressure): day 7 or day 14
Procedure: Screening for thyromimetic activity was performed in normal rats maintained on a cholesterol-containing diet.

cholesterol-fed rat = assay: Subacute study in cholesterol-fed rats, IP once-a-day for seven days: serum cholesterol, heart weight, heart mGPDH; conditions: cholesterol-fed rats, IP 7 days; Compound 17 at 0.1-1 mg/kg/day
Procedure: The cholesterol-fed rat is an animal model of hypercholesterolemia generated by feeding the animals a diet with high cholesterol content.
Methods: Rats were maintained on a diet containing 1.5% cholesterol and 0.5% cholic acid for 2 weeks prior to initiation of treatment. Serum cholesterol values were assessed and the animals randomized into groups for treatment.

Row | Structure (SMILES) | change in vivo at 0.5 mg/kg/day ([1]; po) | total cholesterol at day 7 [2] | total cholesterol at day 14 [2] | cardiovascular parameters (heart rate, LV dP/dt, blood pressure) [2] | further results
1 | CC(C)c1cc(Cc2c(Cl)cc(OCP(=O)(O)O)cc2Cl)ccc1O [Compound 7-5, [3,5-dichloro-4-(4′-hydroxy-3′-iso-propylbenzyl)phenoxy] methylphosphonic acid] | – | – | – | – | change in vivo at 0.2 mg/kg/day ([1]; ip, delivered i.p (0.2 mg/kg/d)): -63.3%; change in vivo at 0.2 mg/kg/day ([1]; po, delivered p.o. (0.2 mg/kg/d)): -38%
2 | CC(C)c1cc(Oc2c(Br)cc(CP(=O)(OCOC(=O)C(C)(C)C)OCOC(=O)C(C)(C)C)cc2Br)ccc1O [Compound 12-5, Di-(pivaloyloxymethyl)[3,5-dibromo-4-(4′-hydroxy-3′-iso-propylphenoxy)benzyl] phosphonate] | – | – | – | – | cholesterol lowering [1]: significant lowering of cholesterol
3 | CC(C)c1cc(Oc2c(I)cc(OCP(=O)(OCOC(=O)C(C)(C)C)OCOC(=O)C(C)(C)C)cc2I)ccc1O [Compound 12-7, Di(pivaloyloxymethyl)[3,5-diiodo-4-(4′-hydroxy-3′-iso-propylphenoxy)phenoxy]methylphosphonate] | -39.1% | – | – | – | –
4 | CC(C)c1cc(Cc2c(Cl)cc(OC[P@@]3(=O)OCC[C@@H](c4cccc(Cl)c4)O3)cc2Cl)ccc1O [Compound 13-11, Cis (S)-2-[(3,5-dichloro-4-(4′-hydroxy-3′-iso-propylbenzyl)phenoxy)methyl]-4-(3-chlorophenyl)-2-oxo-2λ^5-[1,3,2]-dioxaphosphonane] | -24.8% | – | – | – | –
5 | CCOC(=O)[C@H](C)NP(=O)(Cc1cc(Br)c(Oc2ccc(O)c(C(C)C)c2)c(Br)c1)N[C@@H](C)C(=O)OCC [Compound 15-5, di-N-(L-1-ethoxycarbonylethylamino)[3,5-dibromo-4-(4′-hydroxy-3′-iso-propylphenoxy)benzyl]phosphonamide] | – | – | – | – | cholesterol lowering [1]: significant lowering of cholesterol
6 | CCOC(=O)[C@H](C)NP(=O)(COc1cc(Cl)c(Cc2ccc(O)c(C(C)C)c2)c(Cl)c1)N[C@@H](C)C(=O)OCC [Compound 15-7] | -29.1% | – | – | – | –
7 | Cc1cc(OCC(=O)O)cc(C)c1Cc1ccc(O)c(C(C)C)c1 [Compound 17, [3,5-dimethyl-4-(4′-hydroxy-3′-iso-propylbenzyl)-phenoxy]acetic acid, reference compound] | – | significant decrease in cholesterol | no significant decrease in cholesterol was observed | – | cardiac hypertrophy (cholesterol-fed rat): Undesirable cardiac hypertrophy was observed
8 | COP(=O)(O)COc1cc(C)c(Cc2ccc(O)c(C(C)C)c2)c(C)c1 [Compound 69, [3,5-dimethyl-4-(4′-hydroxy-3′-iso-propylbenzyl)phenoxy]-methylphosphonic acid monomethyl ester] | – | cholesterol lowering effects | cholesterol lowering effects | no changes in any of the cardiovascular parameters | –
9 | CCOP(=O)(O)COc1cc(C)c(Cc2ccc(O)c(C(C)C)c2)c(C)c1 [Compound 69-1, [3,5-dimethyl-4-(4′-hydroxy-3′-iso-propylbenzyl)phenoxy]methylphosphonic acid monoethyl ester] | – | cholesterol lowering effects | cholesterol lowering effects | no changes in any of the cardiovascular parameters | –
10 | Cc1cc(OCP(C)(=O)O)cc(C)c1Cc1ccc(O)c(C(C)C)c1 [Compound 70, [3,5-dimethyl-4-(4′-hydroxy-3′-iso-propylbenzyl)-phenoxymethyl]methylphosphinic acid] | – | cholesterol lowering effects | cholesterol lowering effects | no changes in any of the cardiovascular parameters | –
